Each structure is given as a SMILES string.

In general, IC50 refers to the concentration at which inhibition is half-maximal.

In the assay the target is T1, USP19 (Homo sapiens, UniProt O94966).
T1 sequence (O94966 1-1318): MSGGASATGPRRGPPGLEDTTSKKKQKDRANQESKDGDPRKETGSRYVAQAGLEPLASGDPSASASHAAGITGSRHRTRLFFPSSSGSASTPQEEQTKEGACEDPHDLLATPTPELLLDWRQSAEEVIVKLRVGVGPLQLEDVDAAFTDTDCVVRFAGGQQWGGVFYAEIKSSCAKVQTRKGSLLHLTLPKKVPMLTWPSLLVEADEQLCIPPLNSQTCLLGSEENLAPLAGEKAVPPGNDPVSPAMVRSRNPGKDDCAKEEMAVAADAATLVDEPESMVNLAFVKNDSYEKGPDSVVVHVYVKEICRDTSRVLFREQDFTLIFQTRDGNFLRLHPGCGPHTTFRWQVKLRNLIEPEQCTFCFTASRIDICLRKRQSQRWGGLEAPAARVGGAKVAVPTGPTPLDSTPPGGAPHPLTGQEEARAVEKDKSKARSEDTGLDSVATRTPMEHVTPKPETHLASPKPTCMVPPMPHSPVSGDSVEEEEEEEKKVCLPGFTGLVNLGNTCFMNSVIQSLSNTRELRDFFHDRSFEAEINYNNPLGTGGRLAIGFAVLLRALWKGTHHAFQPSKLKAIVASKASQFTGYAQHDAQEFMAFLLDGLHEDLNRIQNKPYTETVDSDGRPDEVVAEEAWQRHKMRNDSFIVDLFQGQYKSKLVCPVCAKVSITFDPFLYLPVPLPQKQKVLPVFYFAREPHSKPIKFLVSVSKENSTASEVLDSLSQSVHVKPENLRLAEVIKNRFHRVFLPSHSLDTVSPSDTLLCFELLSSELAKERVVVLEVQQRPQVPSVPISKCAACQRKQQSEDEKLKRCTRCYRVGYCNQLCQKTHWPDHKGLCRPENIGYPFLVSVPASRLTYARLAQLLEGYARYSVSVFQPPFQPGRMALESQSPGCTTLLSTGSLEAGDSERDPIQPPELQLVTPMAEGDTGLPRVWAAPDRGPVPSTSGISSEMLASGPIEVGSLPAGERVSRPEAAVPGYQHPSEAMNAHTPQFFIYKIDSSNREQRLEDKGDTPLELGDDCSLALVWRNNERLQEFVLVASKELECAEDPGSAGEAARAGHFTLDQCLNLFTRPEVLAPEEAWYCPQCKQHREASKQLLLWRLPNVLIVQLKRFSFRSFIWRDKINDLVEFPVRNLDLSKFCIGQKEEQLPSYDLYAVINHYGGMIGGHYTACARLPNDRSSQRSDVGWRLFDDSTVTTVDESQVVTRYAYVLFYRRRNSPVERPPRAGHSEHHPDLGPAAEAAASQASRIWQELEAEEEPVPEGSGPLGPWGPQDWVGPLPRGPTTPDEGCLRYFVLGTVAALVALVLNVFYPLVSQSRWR
Briefly: USP19 fluorescence polarisation (FP) homogeneous assay. The class given is biochemical. Details: Full-length USP19 was purchased from Boston Biochem (E-576); purchased Boston Biochem E-576. The conditions noted are these: Ubiquitin-Lys-TAMRA substrate, full-length USP19 2.5 nM, average of at least two duplicate experiments. Summed up:
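Inhibitors serially diluted in buffer (200 μM to 2 μM, 8-18 points) and preincubated 30 min at RT before starting with 500 nM Ub substrate.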
A general note: Polarisation of emitted light reports the rotation of a fluorescent probe.

`C[C@H](CC(F)(F)F)C(=O)N1CC[C@@](O)(Cn2cc(C(=O)N3CCN(C)CC3)c(-c3ccccc3)cc2=O)C2(CCCC2)C1` [Example 251, 1-(((S)-10-Hydroxy-7-((R)-4,4,4-trifluoro-2-methylbutanoyl)-7-azaspiro[4.5]decan-10-yl)methyl)-5-(4-methylpiperazine-1-carbonyl)-4-phenylpyridin-2(1 H)-one]: the IC50 is < 500 nM.
The same measure for `C[C@H](CC1CCCCC1)C(=O)N1CCC(O)(Cn2cnc(-c3ccsc3)cc2=O)C(C)(C)C1` (some centres unmarked) [Example 135]: < 500 nM.
Next, `CN(C)C(=O)c1cn(CC2(O)CCN(C(=O)[C@@H]3C[C@@H]3c3ccccc3)CC23CCCC3)c(=O)cc1-c1ccccc1` (stereo partly drawn) [Example 174, 1-((10-Hydroxy-7-((1R,2S)-2-phenylcyclopropane-1-carbonyl)-7-azaspiro[4.5]decan-10-yl)methyl)-N,N-dimethyl-6-oxo-4-phenyl-1,6-dihydropyridine-3-carboxamide]: < 500 nM; `C[C@H](CC1CCCCC1)C(=O)N1CC[C@@](O)(Cn2cc(C(=O)N(C)C)c(-c3ccccc3)cc2=O)C2(CCCC2)C1` [Example 211, 1-(((S)-7-((R)-3-Cyclohexyl-2-methylpropanoyl)-10-hydroxy-7-azaspiro[4.5]decan-10-yl)methyl)-N,N-dimethyl-6-oxo-4-phenyl-1,6-dihydropyridine-3-carboxamide]: < 500 nM.
The same measure for `C[C@H](CC1CCCCC1)C(=O)N1CC[C@@](O)(Cn2cc(C(=O)N(C)C)c(C3CC3)cc2=O)C2(CCCC2)C1` [Example 232, 1-(((S)-7-((R)-3-Cyclohexyl-2-methylpropanoyl)-10-hydroxy-7-azaspiro[4.5]decan-10-yl)methyl)-4-cyclopropyl-N,N-dimethyl-6-oxo-1,6-dihydropyridine-3-carboxamide]: < 500 nM.
With `CN(C)C(=O)c1cn(C[C@]2(O)CCN(C(=O)[C@H](CCO)CC3CCCCC3)CC2(C)C)c(=O)cc1-c1ccccc1` [Example 164, 1-(((S)-1-((S)-2-(Cyclohexylmethyl)-4-hydroxybutanoyl)-4-hydroxy-3,3-dimethylpiperidin-4-yl)methyl)-N,N-dimethyl-6-oxo-4-phenyl-1,6-dihydropyridine-3-carboxamide], the IC50 was < 500 nM.
Consider `C[C@H](CC1CCCCC1)C(=O)N1CCC(O)(Cn2cnc(-c3ccccc3CN)cc2=O)C(C)(C)C1` (some centres unmarked) [Example 141], for which the IC50 is < 500 nM.
For `COC[C@H](CC1CCCCC1)C(=O)N1CC[C@@](O)(Cn2cc(C(=O)N(C)C)c(-c3ccccc3)cc2=O)C(C)(C)C1` [Example 160, 1-(((S)-1-((S)-3-Cyclohexyl-2-(methoxymethyl)propanoyl)-4-hydroxy-3,3-dimethylpiperidin-4-yl)methyl)-N,N-dimethyl-6-oxo-4-phenyl-1,6-dihydropyridine-3-carboxamide], the IC50 is < 500 nM.

The values above are taken from patent US20220016115A1, “USP19 INHIBITORS FOR USE IN THERAPY” (ALMAC DISCOVERY LIMITED, priority 2018, published 2022).
